Details: Hot wire method

FC(F)(F)/C=C/Cl [(E)-1-chloro-3,3,3-trifluoroprop-1-ene]
Details | thermal conductivity [W/m/K]
422.34 K, 6615 kPa, Liquid | 0.05507
422.35 K, 1562 kPa, Fluid (supercritical or subcritical phases) | 0.02132
422.37 K, 5710 kPa, Liquid | 0.054
422.38 K, 5711 kPa, Liquid | 0.05406
422.4 K, 4942 kPa, Liquid | 0.05308
422.42 K, 802 kPa, Fluid (supercritical or subcritical phases) | 0.02084
422.42 K, 1401 kPa, Fluid (supercritical or subcritical phases) | 0.0211
422.42 K, 4947 kPa, Liquid | 0.05316
422.43 K, 1403 kPa, Fluid (supercritical or subcritical phases) | 0.02113
422.44 K, 4300 kPa, Liquid | 0.05228
422.44 K, 4307 kPa, Liquid | 0.05231
422.45 K, 3760 kPa, Liquid | 0.05158
422.45 K, 3761 kPa, Liquid | 0.05162
422.48 K, 2616 kPa, Liquid | 0.05022
422.48 K, 2911 kPa, Liquid | 0.05073
422.48 K, 3308 kPa, Liquid | 0.05108
422.48 K, 3310 kPa, Liquid | 0.05105
422.49 K, 1222 kPa, Fluid (supercritical or subcritical phases) | 0.02095
422.49 K, 2914 kPa, Liquid | 0.05068
422.5 K, 1220 kPa, Fluid (supercritical or subcritical phases) | 0.02096
422.52 K, 28114 kPa, Liquid | 0.07065
422.54 K, 8781 kPa, Liquid | 0.05725
422.54 K, 28086 kPa, Liquid | 0.07055
422.55 K, 7612 kPa, Liquid | 0.0561
422.55 K, 8782 kPa, Liquid | 0.05725
422.56 K, 28121 kPa, Liquid | 0.0704
422.57 K, 1031 kPa, Fluid (supercritical or subcritical phases) | 0.02086
422.57 K, 1032 kPa, Fluid (supercritical or subcritical phases) | 0.02088
422.57 K, 6610 kPa, Liquid | 0.0551
422.58 K, 6615 kPa, Liquid | 0.05511
422.58 K, 28093 kPa, Liquid | 0.07032
422.61 K, 5714 kPa, Liquid | 0.05406
422.62 K, 5709 kPa, Liquid | 0.05406
422.66 K, 4943 kPa, Liquid | 0.05316
422.66 K, 4946 kPa, Liquid | 0.05333
422.67 K, 800 kPa, Fluid (supercritical or subcritical phases) | 0.02086
422.69 K, 11667 kPa, Liquid | 0.05975
422.7 K, 4304 kPa, Liquid | 0.05243
422.7 K, 4305 kPa, Liquid | 0.05239
422.71 K, 3758 kPa, Liquid | 0.05174
422.71 K, 3761 kPa, Liquid | 0.05177
422.72 K, 20061 kPa, Liquid | 0.0657
422.73 K, 3307 kPa, Liquid | 0.0512
422.73 K, 3310 kPa, Liquid | 0.05125
422.74 K, 10145 kPa, Liquid | 0.0585
422.78 K, 17484 kPa, Liquid | 0.06408
422.79 K, 8779 kPa, Liquid | 0.05724
422.79 K, 8783 kPa, Liquid | 0.05727
422.79 K, 17485 kPa, Liquid | 0.06404
422.79 K, 25690 kPa, Liquid | 0.06898
422.8 K, 7613 kPa, Liquid | 0.05618
422.8 K, 7618 kPa, Liquid | 0.05616
422.8 K, 25708 kPa, Liquid | 0.06904
422.8 K, 28111 kPa, Liquid | 0.07046
422.8 K, 28112 kPa, Liquid | 0.07051
422.82 K, 15379 kPa, Liquid | 0.06258
422.83 K, 6608 kPa, Liquid | 0.05508
422.83 K, 6614 kPa, Liquid | 0.05515
422.83 K, 28116 kPa, Liquid | 0.07034
422.84 K, 15382 kPa, Liquid | 0.06256
422.84 K, 28116 kPa, Liquid | 0.07035
422.86 K, 22725 kPa, Liquid | 0.06729
422.87 K, 5712 kPa, Liquid | 0.0541
422.87 K, 5716 kPa, Liquid | 0.05417
422.87 K, 22727 kPa, Liquid | 0.06729
422.89 K, 13389 kPa, Liquid | 0.06114
422.89 K, 13396 kPa, Liquid | 0.0611
422.92 K, 4948 kPa, Liquid | 0.05329
422.93 K, 4948 kPa, Liquid | 0.05326
422.93 K, 11677 kPa, Liquid | 0.05979
422.94 K, 11666 kPa, Liquid | 0.05974
422.96 K, 4303 kPa, Liquid | 0.05247
422.96 K, 4305 kPa, Liquid | 0.05253
422.96 K, 20042 kPa, Liquid | 0.06564
422.97 K, 20051 kPa, Liquid | 0.06568
423 K, 10141 kPa, Liquid | 0.05847
423 K, 10146 kPa, Liquid | 0.05853
423 K, 25690 kPa, Liquid | 0.06899
423.02 K, 28110 kPa, Liquid | 0.07042
423.03 K, 28120 kPa, Liquid | 0.07037
423.04 K, 17472 kPa, Liquid | 0.06399
423.04 K, 17483 kPa, Liquid | 0.06401
423.05 K, 25698 kPa, Liquid | 0.06896
423.06 K, 8781 kPa, Liquid | 0.05726
423.06 K, 8783 kPa, Liquid | 0.05728
423.07 K, 7608 kPa, Liquid | 0.05614
423.07 K, 7616 kPa, Liquid | 0.05619
423.07 K, 15379 kPa, Liquid | 0.06256
423.08 K, 15382 kPa, Liquid | 0.06257
423.1 K, 6613 kPa, Liquid | 0.05516
423.11 K, 6611 kPa, Liquid | 0.05515
423.11 K, 22703 kPa, Liquid | 0.06725
423.11 K, 28104 kPa, Liquid | 0.07029
423.12 K, 22728 kPa, Liquid | 0.06757
423.12 K, 28121 kPa, Liquid | 0.07049
423.14 K, 5716 kPa, Liquid | 0.05419
423.15 K, 5712 kPa, Liquid | 0.0542
423.15 K, 13390 kPa, Liquid | 0.06109
423.15 K, 13399 kPa, Liquid | 0.06114
423.2 K, 4943 kPa, Liquid | 0.05335
423.2 K, 4945 kPa, Liquid | 0.0533
423.2 K, 11667 kPa, Liquid | 0.05975
423.21 K, 11671 kPa, Liquid | 0.05977
423.21 K, 20041 kPa, Liquid | 0.06545
423.21 K, 20058 kPa, Liquid | 0.06566
423.26 K, 25692 kPa, Liquid | 0.06895
423.26 K, 25702 kPa, Liquid | 0.06897
423.27 K, 10146 kPa, Liquid | 0.05849
423.28 K, 10147 kPa, Liquid | 0.05852
423.29 K, 17476 kPa, Liquid | 0.06396
423.3 K, 17478 kPa, Liquid | 0.064
423.3 K, 28106 kPa, Liquid | 0.07034
423.31 K, 28126 kPa, Liquid | 0.07033
423.32 K, 8771 kPa, Liquid | 0.05728
423.33 K, 8783 kPa, Liquid | 0.05728
423.35 K, 7611 kPa, Liquid | 0.05616
423.35 K, 7616 kPa, Liquid | 0.05621
423.35 K, 15369 kPa, Liquid | 0.06251
423.35 K, 15382 kPa, Liquid | 0.06259
423.37 K, 22716 kPa, Liquid | 0.06724
423.37 K, 22722 kPa, Liquid | 0.06728
423.38 K, 6613 kPa, Liquid | 0.0552
423.38 K, 28103 kPa, Liquid | 0.07024
423.39 K, 28113 kPa, Liquid | 0.07028
423.4 K, 6606 kPa, Liquid | 0.05518
423.43 K, 13394 kPa, Liquid | 0.06111
423.44 K, 5711 kPa, Liquid | 0.05425
423.44 K, 5715 kPa, Liquid | 0.05429
423.44 K, 13394 kPa, Liquid | 0.06111
423.48 K, 20043 kPa, Liquid | 0.06561
423.48 K, 20053 kPa, Liquid | 0.06564
423.49 K, 11667 kPa, Liquid | 0.05991
423.49 K, 11670 kPa, Liquid | 0.05977
423.54 K, 25699 kPa, Liquid | 0.06893
423.55 K, 25702 kPa, Liquid | 0.06894
423.56 K, 10145 kPa, Liquid | 0.05848
423.56 K, 10147 kPa, Liquid | 0.05849
423.57 K, 17456 kPa, Liquid | 0.06393
423.57 K, 17477 kPa, Liquid | 0.0642
423.6 K, 28105 kPa, Liquid | 0.07025
423.62 K, 8777 kPa, Liquid | 0.05731
423.62 K, 28121 kPa, Liquid | 0.07026
423.63 K, 8770 kPa, Liquid | 0.05731
423.63 K, 15380 kPa, Liquid | 0.06255
423.64 K, 15380 kPa, Liquid | 0.06256

— the NIST ThermoML archive (doi:10.1021/acs.jced.7b00106)
